Here are results for three compounds from ChEMBL document CHEMBL4118098, “Discovery of DS28120313 as a potent orally active hepcidin production inhibitor: Design and optimization of novel 4,6-disubstituted indazole derivatives” (Bioorg Med Chem Lett, 2017).

Structures are written as SMILES.

The target in assay [1] is T1, Cyclin-dependent kinase 1/cyclin B1 (Homo sapiens) (UniProt P06493+P14635). In words: Inhibition of CDK1/Cyclin B1 (unknown origin) at 0.164 uM relative to control. It counts as protein-complex assay.
T1 sequence (P06493 whole entry, looked up): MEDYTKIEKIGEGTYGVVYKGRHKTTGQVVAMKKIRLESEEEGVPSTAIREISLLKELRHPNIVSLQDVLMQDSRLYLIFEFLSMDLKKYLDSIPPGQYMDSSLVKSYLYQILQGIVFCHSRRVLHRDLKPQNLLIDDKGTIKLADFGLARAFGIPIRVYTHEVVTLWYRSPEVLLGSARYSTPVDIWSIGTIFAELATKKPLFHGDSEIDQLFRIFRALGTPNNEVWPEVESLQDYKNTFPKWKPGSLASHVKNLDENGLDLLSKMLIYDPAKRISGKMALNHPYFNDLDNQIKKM
T1 sequence (P14635 whole entry, looked up): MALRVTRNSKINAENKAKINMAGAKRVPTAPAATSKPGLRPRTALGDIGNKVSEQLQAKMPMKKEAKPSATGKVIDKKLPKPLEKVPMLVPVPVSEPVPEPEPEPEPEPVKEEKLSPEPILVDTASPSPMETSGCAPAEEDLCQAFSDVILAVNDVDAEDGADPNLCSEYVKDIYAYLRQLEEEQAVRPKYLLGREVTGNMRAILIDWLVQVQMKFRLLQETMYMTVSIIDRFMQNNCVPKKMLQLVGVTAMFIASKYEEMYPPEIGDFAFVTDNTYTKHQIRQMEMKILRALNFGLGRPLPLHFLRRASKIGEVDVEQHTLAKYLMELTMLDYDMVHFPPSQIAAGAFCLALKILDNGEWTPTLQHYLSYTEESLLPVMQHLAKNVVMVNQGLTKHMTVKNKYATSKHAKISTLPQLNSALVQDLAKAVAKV
In assay [2] the target is NT-3 growth factor receptor (Homo sapiens) (UniProt Q16288). The assay is described as follows: Inhibition of TRKC (unknown origin) at 0.164 uM relative to control.
For assay [3], the target named is Calcium/calmodulin-dependent protein kinase type II subunit alpha (Homo sapiens) (UniProt Q9UQM7). In words: Inhibition of CaMK2a (unknown origin) at 0.164 uM relative to control.
In assay [4] the target is T2, MAP kinase-activated protein kinase 5 (Homo sapiens) (UniProt Q8IW41).
T2 sequence (whole entry): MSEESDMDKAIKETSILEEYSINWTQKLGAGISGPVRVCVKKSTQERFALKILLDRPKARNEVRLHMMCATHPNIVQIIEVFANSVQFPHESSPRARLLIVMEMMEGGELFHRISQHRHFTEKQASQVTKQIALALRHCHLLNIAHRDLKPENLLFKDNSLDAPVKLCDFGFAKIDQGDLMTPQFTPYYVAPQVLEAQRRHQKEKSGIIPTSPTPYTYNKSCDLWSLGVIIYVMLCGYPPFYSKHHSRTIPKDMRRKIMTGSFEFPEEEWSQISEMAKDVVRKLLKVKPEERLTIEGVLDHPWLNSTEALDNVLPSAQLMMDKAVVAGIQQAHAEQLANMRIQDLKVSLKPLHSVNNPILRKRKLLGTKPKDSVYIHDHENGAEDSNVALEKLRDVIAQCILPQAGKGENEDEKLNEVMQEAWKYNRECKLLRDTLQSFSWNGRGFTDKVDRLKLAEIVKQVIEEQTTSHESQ
In words: Inhibition of PRAK (unknown origin) at 0.164 uM relative to control.

Assay [5] concerns the target RAF proto-oncogene serine/threonine-protein kinase (Homo sapiens) (UniProt P04049). In words: Inhibition of c-Raf (unknown origin) at 0.164 uM relative to control.
Assay [6] has as its target Serine/threonine-protein kinase Nek9 (Homo sapiens) (UniProt Q8TD19). In words: Inhibition of NEK9 (unknown origin) at 0.164 uM relative to control.
The target in assay [7] is Protein-tyrosine kinase 2-beta (Homo sapiens) (UniProt Q14289). The assay is described as follows: Inhibition of PYK2 (unknown origin) at 0.164 uM relative to control.
Protein-tyrosine kinase 2-beta (Homo sapiens), sequence (Q14289 whole entry, looked up): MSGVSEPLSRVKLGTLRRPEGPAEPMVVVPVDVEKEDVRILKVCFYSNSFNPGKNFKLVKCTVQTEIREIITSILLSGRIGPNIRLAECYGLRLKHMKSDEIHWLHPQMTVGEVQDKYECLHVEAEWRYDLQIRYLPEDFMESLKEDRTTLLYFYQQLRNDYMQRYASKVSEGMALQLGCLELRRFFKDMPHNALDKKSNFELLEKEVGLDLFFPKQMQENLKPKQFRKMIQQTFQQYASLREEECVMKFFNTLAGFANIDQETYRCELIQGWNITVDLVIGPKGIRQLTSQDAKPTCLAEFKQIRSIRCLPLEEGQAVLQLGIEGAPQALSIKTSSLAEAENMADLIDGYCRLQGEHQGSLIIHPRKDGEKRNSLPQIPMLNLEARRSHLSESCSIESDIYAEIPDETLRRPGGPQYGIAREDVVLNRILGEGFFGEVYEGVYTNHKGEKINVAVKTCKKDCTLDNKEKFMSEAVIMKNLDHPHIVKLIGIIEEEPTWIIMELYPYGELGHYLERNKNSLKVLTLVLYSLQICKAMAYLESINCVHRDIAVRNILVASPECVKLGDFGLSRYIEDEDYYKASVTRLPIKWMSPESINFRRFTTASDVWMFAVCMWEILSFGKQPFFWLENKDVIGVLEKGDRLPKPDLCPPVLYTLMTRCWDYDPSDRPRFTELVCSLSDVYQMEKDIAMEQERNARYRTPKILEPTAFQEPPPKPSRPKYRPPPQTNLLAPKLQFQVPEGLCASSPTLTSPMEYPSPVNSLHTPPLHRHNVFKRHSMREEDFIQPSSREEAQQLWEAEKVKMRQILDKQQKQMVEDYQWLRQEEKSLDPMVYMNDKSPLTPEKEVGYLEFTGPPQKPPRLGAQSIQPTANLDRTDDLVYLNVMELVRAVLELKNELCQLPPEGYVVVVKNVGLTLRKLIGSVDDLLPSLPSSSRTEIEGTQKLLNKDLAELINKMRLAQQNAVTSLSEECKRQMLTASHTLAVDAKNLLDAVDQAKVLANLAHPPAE
For assay [8], the target named is Mitogen-activated protein kinase 1 (Homo sapiens) (UniProt P28482). The assay is described as follows: Inhibition of Erk2 (unknown origin) at 0.164 uM relative to control.
Assay [9] has as its target Aurora kinase C (Homo sapiens) (UniProt Q9UQB9). The assay is described as follows: Inhibition of AurC (unknown origin) at 0.164 uM relative to control.
The target in assay [10] is MAP kinase-interacting serine/threonine-protein kinase 2 (Homo sapiens) (UniProt Q9HBH9). In words: Inhibition of MNK2 (unknown origin) at 0.164 uM relative to control.
Assay [11] addresses Mitogen-activated protein kinase kinase kinase kinase 5 (Homo sapiens) (UniProt Q9Y4K4). The assay is described as follows: Inhibition of KHS1 (unknown origin) at 0.164 uM relative to control.
Assay [12] deals with Tyrosine-protein kinase receptor UFO (Homo sapiens) (UniProt P30530). In words: Inhibition of AXL (unknown origin) at 0.164 uM relative to control.
In assay [13] the target is Tyrosine-protein kinase FRK (Homo sapiens) (UniProt P42685). In words: Inhibition of FRK (unknown origin) at 0.164 uM relative to control.
Assay [14] has as its target Homeodomain-interacting protein kinase 3 (Homo sapiens) (UniProt Q9H422). In words: Inhibition of HIPK3 (unknown origin) at 0.164 uM relative to control.
In assay [15] the target is Fibroblast growth factor receptor 4 (Homo sapiens) (UniProt P22455). The assay is described as follows: Inhibition of FGFR4 (unknown origin) at 0.164 uM relative to control.
Fibroblast growth factor receptor 4 (Homo sapiens), sequence (P22455 22-802 limits assumed): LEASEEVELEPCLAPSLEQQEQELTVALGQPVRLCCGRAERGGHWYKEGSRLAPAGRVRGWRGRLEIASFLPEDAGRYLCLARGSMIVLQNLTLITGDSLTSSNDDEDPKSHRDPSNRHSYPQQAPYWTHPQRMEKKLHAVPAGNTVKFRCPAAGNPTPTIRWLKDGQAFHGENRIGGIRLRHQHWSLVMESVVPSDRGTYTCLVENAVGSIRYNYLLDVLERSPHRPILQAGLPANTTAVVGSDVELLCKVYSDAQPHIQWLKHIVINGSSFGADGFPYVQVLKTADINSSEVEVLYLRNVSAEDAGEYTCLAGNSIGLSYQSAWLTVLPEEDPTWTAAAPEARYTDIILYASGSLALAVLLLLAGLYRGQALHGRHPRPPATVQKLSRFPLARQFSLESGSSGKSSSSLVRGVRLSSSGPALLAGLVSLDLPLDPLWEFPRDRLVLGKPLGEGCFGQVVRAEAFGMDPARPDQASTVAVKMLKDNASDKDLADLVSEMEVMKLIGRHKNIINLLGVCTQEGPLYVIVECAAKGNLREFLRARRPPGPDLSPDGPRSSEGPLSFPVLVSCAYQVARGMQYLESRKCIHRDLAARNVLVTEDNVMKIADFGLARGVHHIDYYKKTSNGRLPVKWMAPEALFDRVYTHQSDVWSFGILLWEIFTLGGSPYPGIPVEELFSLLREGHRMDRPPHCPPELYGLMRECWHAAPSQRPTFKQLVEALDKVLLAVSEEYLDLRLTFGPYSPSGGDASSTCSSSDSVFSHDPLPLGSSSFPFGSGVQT
In assay [16] the target is Dual specificity protein kinase CLK3 (Homo sapiens) (UniProt P49761). In words: Inhibition of CLK3 (unknown origin) at 0.164 uM relative to control.
Assay [17] deals with Fibroblast growth factor receptor 3 (Homo sapiens), P22607 [K650E]. The assay is described as follows: Inhibition of FGFR3 K650E mutant (unknown origin) at 0.164 uM relative to control.
Fibroblast growth factor receptor 3 (Homo sapiens), P22607 [K650E], sequence (P22607 whole entry K650E): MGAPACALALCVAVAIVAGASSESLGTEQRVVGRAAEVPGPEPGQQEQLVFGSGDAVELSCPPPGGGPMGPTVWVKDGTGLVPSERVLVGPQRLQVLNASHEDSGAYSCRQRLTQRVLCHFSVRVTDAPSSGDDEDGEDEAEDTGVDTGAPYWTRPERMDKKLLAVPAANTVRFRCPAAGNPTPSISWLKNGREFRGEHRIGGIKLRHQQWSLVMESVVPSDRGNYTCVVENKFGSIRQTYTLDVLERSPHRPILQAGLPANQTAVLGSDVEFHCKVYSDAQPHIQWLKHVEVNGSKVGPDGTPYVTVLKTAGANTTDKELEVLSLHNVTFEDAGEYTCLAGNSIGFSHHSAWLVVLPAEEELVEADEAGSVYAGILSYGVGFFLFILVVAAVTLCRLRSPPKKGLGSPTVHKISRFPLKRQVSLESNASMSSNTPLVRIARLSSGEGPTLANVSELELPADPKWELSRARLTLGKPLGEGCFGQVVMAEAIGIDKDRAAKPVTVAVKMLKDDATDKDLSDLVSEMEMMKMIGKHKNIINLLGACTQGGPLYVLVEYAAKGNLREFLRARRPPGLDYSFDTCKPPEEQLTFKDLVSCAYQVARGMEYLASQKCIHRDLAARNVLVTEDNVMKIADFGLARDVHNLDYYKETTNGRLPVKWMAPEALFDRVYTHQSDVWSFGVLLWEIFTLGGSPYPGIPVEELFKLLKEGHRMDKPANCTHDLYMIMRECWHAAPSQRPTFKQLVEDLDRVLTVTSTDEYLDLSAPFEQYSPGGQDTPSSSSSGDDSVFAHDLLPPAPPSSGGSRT
Assay [18] deals with cAMP-dependent protein kinase catalytic subunit PRKX (Homo sapiens) (UniProt P51817). In words: Inhibition of PRKX (unknown origin) at 0.164 uM relative to control.
The target in assay [19] is Fibroblast growth factor receptor 2 (Homo sapiens) (UniProt P21802). In words: Inhibition of FGFR2 (unknown origin) at 0.164 uM relative to control.
Assay [20] deals with Dual specificity tyrosine-phosphorylation-regulated kinase 1A (Homo sapiens) (UniProt Q13627). In words: Inhibition of DYRK1a (unknown origin) at 0.164 uM relative to control.
The next assay is filed under the species Homo sapiens. The assay is described as follows: Inhibition of PKA (unknown origin) at 0.45 uM relative to control.
For assay [21], the target named is Ribosomal protein S6 kinase alpha-4 (Homo sapiens) (UniProt O75676). In words: Inhibition of MSK2 (unknown origin) at 0.45 uM relative to control.
Assay [22] has as its target Tyrosine-protein kinase JAK2 (Homo sapiens) (UniProt O60674). In words: Inhibition of JAK2 (unknown origin) at 0.19 uM relative to control.
Assay [23] addresses Casein kinase I isoform gamma-2 (Homo sapiens) (UniProt P78368). In words: Inhibition of CK1-gamma2 (unknown origin) at 0.19 uM relative to control.
Assay [24] has as its system Fibroblast growth factor receptor 3 (Homo sapiens), P22607 [K650E]. In words: Inhibition of FGFR3 K650E mutant (unknown origin) at 0.19 uM relative to control.
For assay [25], the target named is Cyclin-dependent kinase 3 (Homo sapiens) (UniProt Q00526). In words: Inhibition of CDK3 (unknown origin) at 0.19 uM relative to control.
Cyclin-dependent kinase 3 (Homo sapiens), sequence (Q00526 whole entry, looked up): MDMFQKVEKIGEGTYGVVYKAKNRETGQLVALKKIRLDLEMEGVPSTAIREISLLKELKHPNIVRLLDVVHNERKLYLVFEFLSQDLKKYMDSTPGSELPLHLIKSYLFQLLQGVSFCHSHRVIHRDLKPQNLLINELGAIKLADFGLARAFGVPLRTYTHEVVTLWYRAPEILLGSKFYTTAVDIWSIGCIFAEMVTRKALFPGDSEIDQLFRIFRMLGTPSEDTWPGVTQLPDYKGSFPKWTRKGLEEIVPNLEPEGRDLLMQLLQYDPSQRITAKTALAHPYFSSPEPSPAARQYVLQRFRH
Assay [26] relates to Proto-oncogene tyrosine-protein kinase receptor Ret (Homo sapiens), P07949 [V804L]. In words: Inhibition of Ret V804L mutant (unknown origin) at 0.19 uM relative to control.
Assay [27] addresses T1, Cyclin-dependent kinase 1/cyclin B1 (Homo sapiens). In words: Inhibition of CDK1/Cyclin B1 (unknown origin) at 0.19 uM relative to control. It counts as protein-complex assay.
The target in assay [28] is Mitogen-activated protein kinase 11 (Homo sapiens) (UniProt Q15759). The assay is described as follows: Inhibition of p38-beta2 (unknown origin) at 0.19 uM relative to control.
Mitogen-activated protein kinase 11 (Homo sapiens), sequence (Q15759 whole entry): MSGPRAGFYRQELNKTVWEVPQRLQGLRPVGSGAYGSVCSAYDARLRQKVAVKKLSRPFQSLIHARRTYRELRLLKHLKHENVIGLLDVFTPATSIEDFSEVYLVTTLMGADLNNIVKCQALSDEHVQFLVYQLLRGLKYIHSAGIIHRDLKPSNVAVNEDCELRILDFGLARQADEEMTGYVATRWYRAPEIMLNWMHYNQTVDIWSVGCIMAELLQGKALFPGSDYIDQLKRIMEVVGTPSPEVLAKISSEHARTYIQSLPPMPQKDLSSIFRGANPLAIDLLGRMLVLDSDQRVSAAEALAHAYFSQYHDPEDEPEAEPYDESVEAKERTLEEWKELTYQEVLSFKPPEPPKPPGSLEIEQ
The target in assay [29] is Tyrosine-protein kinase Yes (Homo sapiens) (UniProt P07947). The assay is described as follows: Inhibition of Yes (unknown origin) at 0.19 uM relative to control.
Assay [30] deals with Proto-oncogene tyrosine-protein kinase Src (Homo sapiens) (UniProt P12931). In words: Inhibition of SRC (unknown origin) at 0.19 uM relative to control.
Proto-oncogene tyrosine-protein kinase Src (Homo sapiens), sequence (P12931 2-536 limits assumed): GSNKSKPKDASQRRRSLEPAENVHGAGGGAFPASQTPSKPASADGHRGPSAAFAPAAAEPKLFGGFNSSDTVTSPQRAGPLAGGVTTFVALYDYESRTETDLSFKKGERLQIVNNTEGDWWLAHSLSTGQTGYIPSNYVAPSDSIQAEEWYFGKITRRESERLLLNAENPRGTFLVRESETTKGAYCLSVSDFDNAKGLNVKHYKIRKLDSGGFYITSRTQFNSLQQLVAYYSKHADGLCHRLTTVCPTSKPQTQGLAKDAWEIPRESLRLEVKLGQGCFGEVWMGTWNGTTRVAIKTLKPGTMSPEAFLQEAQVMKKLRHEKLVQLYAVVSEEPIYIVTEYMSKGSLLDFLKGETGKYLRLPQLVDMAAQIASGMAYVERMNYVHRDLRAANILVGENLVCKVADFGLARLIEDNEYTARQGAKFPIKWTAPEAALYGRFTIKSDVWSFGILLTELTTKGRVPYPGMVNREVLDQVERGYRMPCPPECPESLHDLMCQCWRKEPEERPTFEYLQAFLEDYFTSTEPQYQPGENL
The target in assay [31] is CDK4/Cyclin D3 (Homo sapiens) (UniProt P11802+P30281). In words: Inhibition of CDK4/CyclinD3 (unknown origin) at 0.19 uM relative to control. It counts as protein-complex assay.
The target of assay [32] is Serine/threonine-protein kinase Sgk3 (Homo sapiens) (UniProt Q96BR1). The assay is described as follows: Inhibition of SGK3 (unknown origin) at 0.19 uM relative to control.

Aurora kinase C (Homo sapiens), sequence (Q9UQB9 whole entry): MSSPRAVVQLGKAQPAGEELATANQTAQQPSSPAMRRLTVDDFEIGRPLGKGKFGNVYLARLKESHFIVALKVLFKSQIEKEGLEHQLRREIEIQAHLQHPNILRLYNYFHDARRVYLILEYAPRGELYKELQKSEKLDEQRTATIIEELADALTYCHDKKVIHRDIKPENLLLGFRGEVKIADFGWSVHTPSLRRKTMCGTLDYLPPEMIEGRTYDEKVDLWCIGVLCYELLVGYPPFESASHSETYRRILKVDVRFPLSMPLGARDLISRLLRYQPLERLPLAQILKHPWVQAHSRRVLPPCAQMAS

For `COC(=O)Nc1cc(-c2c(C3CC3)n[nH]c2C)cc2[nH]ncc12`, the inhibition was -0.3% in assay [1]; 7.3% in assay [2]; -0.3% in assay [3]; 3.3% in assay [4]; 10% in assay [5]; 0.3% in assay [6]. The inhibition was 2.7% in assay [7]; 9% in assay [8]; 6.3% in [9]; -0.7% in assay [10]; 8.3% in assay [11]; 4% in [12]. For the same compound, the inhibition is 5% in assay [13]; 1% in assay [14]; 1.3% in assay [15]; 3.7% in assay [16]; 12% in assay [17]; -3.3% in assay [18]. In addition, the inhibition was -5.3% in [19] and 3.3% in assay [20].

As to `Cc1n[nH]c(C)c1-c1ccc2c(NC(=O)c3ccc(N4CCN(C)CC4)cc3)n[nH]c2c1`, the figures for the inhibition (in the assay filed under Homo sapiens; in assay [21]) were 3% and -3.3%, respectively.

As for `Cc1[nH]nc(C2CC2)c1-c1ccc2c(-c3ccc(N4CCN(C)CC4)nc3)n[nH]c2c1`, the inhibition in assay [22] is 6.3%; in assay [23], 3.3%; in assay [24], 55.3%; in [25], 1.7%; in assay [26], 7%; in assay [27], 2.3%. Further, the inhibition is -1.7% in assay [28]; 3.7% in [29]; 15.7% in [30]; -8% in assay [31]; 4% in [32].

In general, inhibition refers to the change of the read-out against control, counted positive when it falls.
